Reference: US11891401B2, “Solid forms of N-(4-fluoro-3-(6-(3-methylpyridin-2-yl)-[1,2,4]triazolo[1,5-a]pyrimidin-2-yl)phenyl)-2,4-dimethyloxazole-5-carboxamide” (NOVARTIS AG, priority 2018, dated 2024)
Converted amounts (≈) assume the structure as drawn.

Legend:
Type in all cases: physicochemical
[1] = Solubility in various media at 25° C. after 24 hours equilibration (UPLC); conditions: for final pH of the sample (in parentheses): after 24 hours equilibration
[2] = Solid-state chemical stability: degradation products by UPLC/HPLC after stress storage; conditions: for DP % (Degradation Product), Bulk (UPLC): Solid state; for DP % (Degradation Product), Amber vial (HPLC) / DP % (Degradation Product), Clear vial (HPLC): Xenon light (approx. 1200 kLuxh)
Protocol: (§1) Compound I, Compound I fumaric acid co-crystals and amorphous Compound I fumaric acid samples (10 mg) were placed in an open vial at 50° C./75% RH and 80° C./75% RH chamber for one week. A same amount of sample was placed in a closed vial at 50° C. and 80° C. chamber for 1 week. The samples were exposed to 100 k Lux light for 12 h at 25° C. Solids were examined by XRPD for physical stability determination and by UPLC for chemical stability determination. The color of the samples was evaluated by visual observation. Table 5 compares the stability of Compound I and its various solid forms.

[3] = Solid-state physical stability: form change by XRPD after stress storage; conditions: Solid state
Protocol: as §1

[4] = Dynamic Vapor Sorption (DVS) moisture absorption / hygroscopicity; conditions: for solid form after DVS: after DVS testing; for moisture absorption by DVS: at 90% RH, 25° C.; for hygroscopicity: by DVS
[5] = Crystal form after grinding, compression and wet granulation; conditions: compression and wet granulation (water and ethanol)
[6] = 0.01N HCl pH 2.0, 25° C., 24 hours equilibration
[7] = 0.1N HCl pH 1.0, 25° C., 24 hours equilibration
[8] = FaSSIF pH 6.5, 25° C., 24 hours equilibration
[9] = FeSSIF pH 5.8, 25° C., 24 hours equilibration
[10] = SGF pH 2.0, 25° C., 24 hours equilibration
[11] = acetate buffer pH 4.7, 25° C., 24 hours equilibration
[12] = borate buffer pH 10.0, 25° C., 24 hours equilibration
[13] = phosphate buffer pH 6.8, 25° C., 24 hours equilibration
[14] = water, 25° C., 24 hours equilibration
[15] = 1 week 80° C., closed container
[16] = 1 week 50° C., closed container
[17] = listed as Compound I fumaric acid co-crystals (2:1)

Compound	solubility [1, 6]	final pH of the sample (in parentheses) ([1]; 0.01N HCl pH 2.0)	solubility [1, 7]	final pH of the sample (in parentheses) ([1]; 0.1N HCl pH 1.0)	solubility [1, 8]	final pH of the sample (in parentheses) ([1]; FaSSIF pH 6.5)	solubility [1, 9]	final pH of the sample (in parentheses) ([1]; FeSSIF pH 5.8)	solubility [1, 10]	final pH of the sample (in parentheses) ([1]; SGF pH 2.0)	solubility [1, 11]	final pH of the sample (in parentheses) ([1]; acetate buffer pH 4.7)	final pH of the sample (in parentheses) ([1]; borate buffer pH 10.0)	final pH of the sample (in parentheses) ([1]; phosphate buffer pH 6.8)	final pH of the sample (in parentheses) ([1]; water)	DP % (Degradation Product), Bulk (UPLC) [2, 15]	DP % (Degradation Product), Bulk (UPLC) ([2]; 1 week 80° C./75% r.h.)	DP % (Degradation Product), Amber vial (HPLC) [2]	DP % (Degradation Product), Clear vial (HPLC) [2]	Bulk (XRPD) [3, 15]	further results
Cc1nc(C)c(C(=O)Nc2ccc(F)c(-c3nc4ncc(-c5ncccc5C)cn4n3)c2)o1 [Amorphous Compound I Fumaric Acid (2:1), N-(4-fluoro-3-(6-(3-methylpyridin-2-yl)-[1,2,4]triazolo[1,5-a]pyrimidin-2-yl)phenyl)-2,4-dimethyloxazole-5-carboxamide]	9 µg/mL (≈ 20.3 µM)	(2.0)	180 µg/mL (≈ 406 µM)	(1.1)	3 µg/mL (≈ 6.77 µM)	(6.1)	13 µg/mL (≈ 29.3 µM)	(5.7)	25 µg/mL (≈ 56.4 µM)	(2.2)	<0.1 µg/mL	(4.7)	(9,7)	(6.7)	(3.2)	1.7%	1.6%	1.5%	10.6%	no change	solubility [1, 12]: <0.1 µg/mL; solubility [1, 13]: <0.1 µg/mL; solubility [1, 14]: <0.1 µg/mL
Cc1nc(C)c(C(=O)Nc2ccc(F)c(-c3nc4ncc(-c5ncccc5C)cn4n3)c2)o1 [Form C, N-(4-fluoro-3-(6-(3-methylpyridin-2-yl)-[1,2,4]triazolo[1,5-a]pyrimidin-2-yl)phenyl)-2,4-dimethyloxazole-5-carboxamide]			240 µg/mL (≈ 541 µM)	(1.1)		(5.5)		(5.5)	46 µg/mL (≈ 104 µM)	(2.0)		(4.4)		(6.4)	(2.9)	1.8%	1.8%	1.8%	1.8%	no change	moisture absorption by DVS [4]: approximately 0.6%; hygroscopicity [4]: slightly hygroscopic; DP % (Degradation Product), Bulk (UPLC) [2, 16]: 1.8%; DP % (Degradation Product), Bulk (UPLC) ([2]; 1 week 50° C./75% r.h.): 1.7%; Bulk (XRPD) [3, 16]: no change; Bulk (XRPD) ([3]; 1 week 50° C./75% r.h.): no change

Now from value to compound, other results behind:

solubility [1, 6]	final pH of the sample (in parentheses) ([1]; 0.01N HCl pH 2.0)	solubility [1, 7]	final pH of the sample (in parentheses) ([1]; 0.1N HCl pH 1.0)	solubility [1, 8]	final pH of the sample (in parentheses) ([1]; FaSSIF pH 6.5)	solubility [1, 9]	final pH of the sample (in parentheses) ([1]; FeSSIF pH 5.8)	solubility [1, 10]	final pH of the sample (in parentheses) ([1]; SGF pH 2.0)	solubility [1, 11]	final pH of the sample (in parentheses) ([1]; acetate buffer pH 4.7)	final pH of the sample (in parentheses) ([1]; borate buffer pH 10.0)	final pH of the sample (in parentheses) ([1]; phosphate buffer pH 6.8)	final pH of the sample (in parentheses) ([1]; water)	DP % (Degradation Product), Bulk (UPLC) [2, 15]	DP % (Degradation Product), Bulk (UPLC) ([2]; 1 week 80° C./75% r.h.)	DP % (Degradation Product), Amber vial (HPLC) [2]	DP % (Degradation Product), Clear vial (HPLC) [2]	Bulk (XRPD) [3, 15]	Compound	further results
21 µg/mL (≈ 47.4 µM)	(2.1)	170 µg/mL (≈ 383 µM)	(1.0)	7 µg/mL (≈ 15.8 µM)	(5.7)	16 µg/mL (≈ 36.1 µM)	(5.6)	63 µg/mL (≈ 142 µM)	(1.9)	2 µg/mL (≈ 4.51 µM)	(4.6)	(8.1)	(6.5)	(2.9)	1.7%	1.7%	1.7%	1.6%	no change	Cc1nc(C)c(C(=O)Nc2ccc(F)c(-c3nc4ncc(-c5ncccc5C)cn4n3)c2)o1 [Form B, N-(4-fluoro-3-(6-(3-methylpyridin-2-yl)-[1,2,4]triazolo[1,5-a]pyrimidin-2-yl)phenyl)-2,4-dimethyloxazole-5-carboxamide]	solid form after DVS [4]: remains the same form; moisture absorption by DVS [4]: 0.3%; hygroscopicity [4]: non-hygroscopic; crystal form after grinding, compression and wet granulation [5]: did not alter the crystal form; stability and solubility (24 h) in aqueous media ([1]; aqueous media, 24 h, versus free form hydrate): comparable to the free form hydrate; solubility compared to the solubility of the free form ([1]; biological fluids SGF, FaSSIF and FeSSIF): significantly better; solubility [1, 12]: 2 µg/mL (≈ 4.51 µM); solubility [1, 13]: 2 µg/mL (≈ 4.51 µM); solubility [1, 14]: 4 µg/mL (≈ 9.02 µM); DP % (Degradation Product), Bulk (UPLC) [2, 16]: 1.8%; DP % (Degradation Product), Bulk (UPLC) ([2]; 1 week 50° C./75% r.h.): 1.7%; Bulk (XRPD) [3, 16]: no change; Bulk (XRPD) ([3]; 1 week 50° C./75% r.h.): no change
5 µg/mL	(1.9)	160 µg/mL	(0.8)		(5.9)		(5.5)	30 µg/mL	(1.9)		(4.5)	(9.6)	(6.6)	(3.1)	1.2%	1.2%	1.2%	1.2%	no change	Cc1nc(C)c(C(=O)Nc2ccc(F)c(-c3nc4ncc(-c5ncccc5C)cn4n3)c2)o1 [Compound I Fumaric Acid Co-crystal (2:1), N-(4-fluoro-3-(6-(3-methylpyridin-2-yl)-[1,2,4]triazolo[1,5-a]pyrimidin-2-yl)phenyl)-2,4-dimethyloxazole-5-carboxamide]	solid form after DVS [4, 17]: remains the same form; moisture absorption by DVS [4]: 0.12%; moisture absorption by DVS [4, 17]: 0.12%; hygroscopicity [4]: non-hygroscopic; hygroscopicity [4, 17]: non-hygroscopic; solubility compared to the solubility of the free form ([1]; FeSSIF): significantly better; solubility at 24 h ([1]; thermodynamic from solid, FeSSIF pH 5.8, 25° C., 24 hours equilibration): 17 µg/mL; DP % (Degradation Product), Bulk (UPLC) [2, 16]: 1.2%; DP % (Degradation Product), Bulk (UPLC) ([2]; 1 week 50° C./75% r.h.): 1.2%; Bulk (XRPD) [3, 16]: no change; Bulk (XRPD) ([3]; 1 week 50° C./75% r.h.): no change
36 µg/mL (≈ 81.2 µM)	(2.1)	350 µg/mL (≈ 789 µM)	(1.1)	7 µg/mL (≈ 15.8 µM)	(5.8)	18 µg/mL (≈ 40.6 µM)	(5.6)	55 µg/mL (≈ 124 µM)	(2.2)	<0.1 µg/mL	(4.6)	(9.6)	(6.6)	(3.0)	2.6%	2.7%	2.8%	4.5%	no change	Cc1nc(C)c(C(=O)Nc2ccc(F)c(-c3nc4ncc(-c5ncccc5C)cn4n3)c2)o1 [Amorphous Compound I Fumaric Acid (1:1), N-(4-fluoro-3-(6-(3-methylpyridin-2-yl)-[1,2,4]triazolo[1,5-a]pyrimidin-2-yl)phenyl)-2,4-dimethyloxazole-5-carboxamide]	solubility [1, 12]: <0.1 µg/mL; solubility [1, 13]: <0.1 µg/mL; solubility [1, 14]: 0.2 µg/mL (≈ 0.451 µM)
